From US9296688B2, “Carbohydrate-selective receptors” (New York University, priority 2012, dated 2016)
Values joined by “and” are separate entries in the source; they are usually repeats but may differ in a detail not shown here. Equal values may be shown once. Read-outs that look alike come from different tables or passages of the source.

Legend:
[1] = not given; remark: listed apart in the source
[2] = remark: listed apart in the source
Protocol: Note that all equilibria present in a receptor/pyranoside mixture contribute toward the calculated BC50 value, and a higher 1/BC50 value is indicative of a higher overall binding strength.
As each 1/BC50 plot is a measure of affinity between 1 and pyranosides, comparing the plots of two or more pyranosides provides a means of assessing selectivity.
The BC50^0 values of the pyranosides for receptor 1 were determined using Eq. 17.

[3] = 1/BC50 plot, pyranoside 0 to 10.0 mM
Protocol: (§1) ^1H NMR titrations were performed in CDCl3 at a field strength of either 500, 800, or 900 MHz at 25, 20, 15, 10, or 5° C. The ^1H NMR resonances corresponding to both pyranoside and host were assigned through ^1H-^1H COSY and NOESY experiments.
(§2) This is the result of an exchange process involving 1 (H) and pyranoside (G) equilibria products exchanging fast on the NMR timescale, resulting in the averaging of chemical shifts of protons in differing chemical environments.
(§3) Fittings were conducted in Microsoft Excel 2007 using the Solver feature. […]
Thus, the binding of pyranosides was first studied under conditions where receptor 1 was maintained at a low concentration (<70 μM) to minimize the contribution of the Kdimer and K3 equilibria (FIG. 2). Once the values of K1 and K2 were determined, their values were held invariant in subsequent peak shift fittings, which facilitated the quantification of the other Kas. […]
(§4) For each non-mannoside, K1 was determined by subjecting all resolvable resonances from each titration at 25° C. to a global nonlinear fitting analysis with a model combining K1 and Kdimer (13.0±0.5 M^−1), which was measured independently by ^1H NMR dilution experiments (Table 1). […]

[4] = CDCl3, 25° C., extrapolated from a Van't Hoff plot
Protocol: as §1, §2, §3
Thus, the binding of pyranosides was first studied under conditions where receptor 1 was maintained at a low concentration (<70 μM) to minimize the contribution of the Kdimer and K3 equilibria (FIG. 2). Once the values of K1 and K2 were determined, their values were held invariant in subsequent peak shift fittings, which facilitated the quantification of the other Kas.
as §4

[5] = 1:2 binding (K2), CDCl3, Van't Hoff

With `c1c[nH]c(CNCc2cc(CNCc3ccc[nH]3)cc(-c3cc(CNCc4ccc[nH]4)cc(CNCc4ccc[nH]4)c3)c2)c1` [Compound 1, N,N′,N′N″N′″-([1,1′-biphenyl]-3,3′,5,5′-tetrayltetrakis(methylene))tetrakis (1-(1H-pyrrol-2-yl)methanamine)] the Kdimer (CDCl3, 5° C.) was 24.2 ± 0.5 M⁻¹, the Kdimer (CDCl3, 10° C.) was 20.8 M⁻¹ and the Kdimer (CDCl3, 15° C.) was 16.9 M⁻¹. The Kdimer (CDCl3, 20° C.) was 15.3 M⁻¹, the Kdimer (CDCl3, 25° C.) was 13.0 M⁻¹ and 13.0 ± 0.5 M⁻¹ and the “ΔH°” value [1, 5] was -20.2 ± 1.2 kcal/mol. For the same molecule, the “ΔS°” value [1, 5] was −52±4 e.u, the “interaction parameter α for K3 (K3 / reference Ka)” value ([1]; 2:1 binding, 25° C.) was “at least 2.7” and the “approximate baseline (reference) Ka, 1:1 binding of 1 to the β-face of β-Man” value ([1]; from NMR detection limit, no NOEs on β-face, 0.5 mM 1, 1.0 mM β-Man, 25° C.) was ≤ 104 M⁻¹. The binding order ([2]; higher pyranoside concentrations (>1.0 mM)) was “α-Man>β-Man>β-Glc”, the binding order ([2]; pyranoside from 0.3 mM to 1.0 mM) was “α-Man>β-Glc>β-Man” and the “concentration of α-Man where the maximum 1/BC50 value (maximum selectivity) is obtained” value [3] was 0.8 mM. For the same molecule, the “K3 (2:1 receptor:pyranoside binding)” value [4] was 3 M⁻¹.
